Values after ≈ are worked out from the molar mass of the structure shown. Active and inactive are the calls of the source. No cut-off for these calls is given here. Non-standard residues stand in square brackets, D forms with d. Residues, ends and D or L forms follow the SMILES beside them. *: point of attachment. Palmitoyl = CCCCCCCCCCCCCCCC(=O)*; AEEA = NCCOCCOCC(=O)O; Aib = CC(C)(N)C(=O)O
Assays:
[1] = Inhibition of MERS-CoV Spike glycoprotein mediated cell-cell fusion; parameters: species or system Middle East respiratory syndrome-related coronavirus
[2] = Selectivity index, ratio of CC50 for human Huh-7 cells infected with MERS CoV pseudovirus to EC50 for MERS CoV pseudovirus infected in Huh-7 cells; assay type: toxicity, cell-based; settings: read-out: Ratio CC50/EC50
[3] = Half life in Sprague-Dawley rat at 4 mg/kg, iv administered as single dose and measured upto 36 hrs by LC-MS/MS analysis; assay type: ADME, organism-based; settings: in vivo
[4] = AUC (0 to t) in Sprague-Dawley rat at 4 mg/kg, iv administered as single dose and measured upto 36 hrs by LC-MS/MS analysis; assay type: ADME, organism-based; settings: in vivo
[5] = Cmax in Sprague-Dawley rat at 4 mg/kg, iv administered as single dose and measured upto 36 hrs by LC-MS/MS analysis; assay type: ADME, organism-based; settings: in vivo
[6] = Water solubility of compound in PBS at pH 7.4; assay type: physicochemical
[7] = Clearance in Sprague-Dawley rat at 4 mg/kg, iv administered as single dose and measured upto 36 hrs by LC-MS/MS analysis; assay type: ADME, organism-based; settings: in vivo
[8] = MRT (0 to t) in Sprague-Dawley rat at 4 mg/kg, iv administered as single dose and measured upto 36 hrs by LC-MS/MS analysis; assay type: ADME, organism-based; settings: in vivo
[9] = Volume of distribution in Sprague-Dawley rat at 4 mg/kg, iv administered as single dose and measured upto 36 hrs by LC-MS/MS analysis; assay type: ADME, organism-based; settings: in vivo
[10] = Water solubility of compound in dd-H2O; assay type: physicochemical
[11] = system: Middle East respiratory syndrome-related coronavirus; assay: Inhibition of MERS CoV spike glycoprotein HR1/HR2 fusion assessed as disruption of fusion-active core formation by measuring reduction in six-helix bundle density at 100 uM by native-PAGE analysis
[12] = system: Middle East respiratory syndrome-related coronavirus; assay: Antiviral activity against MERS CoV pseudovirus infected in Huh-7 cells assessed as inhibition of viral infection; assay type: functional, organism-based
[13] = Cytotoxicity against human Huh-7 cells infected with MERS CoV pseudovirus assessed as reduction in cell viability; assay type: toxicity, cell-based
[14] = system: Middle East respiratory syndrome-related coronavirus; assay: Inhibition of MERS CoV spike glycoprotein HR1/HR2 fusion assessed as disruption of fusion-active core formation by measuring increase in HR2P density at 100 uM by native-PAGE analysis

SMILES | EC50 [1] | selectivity ratio [2] | half-life [3] | AUC(0-t) at 36 h [4] | Cmax [5] | solubility [6] | clearance [7] | MRT last at 36 h [8] | Vd [9] | solubility [10] | inhibition [11] | EC50 [12] | CC50 [13] | inhibition [14]
CCCCCCCCCCCCCCCC(=O)NCCCC[C@H](NC(=O)COCCOCCNC(=O)[C@H](Cc1ccc(O)cc1)NC(=O)[C@H](CO)NC(=O)[C@H](CCC(=O)O)NC(=O)[C@H](CC(N)=O)NC(=O)[C@H](CC(C)C)NC(=O)[C@H](CCCCN)NC(=O)[C@H](CCCCN)NC(=O)[C@@H](NC(=O)[C@@H](NC(=O)[C@H](CCC(=O)O)NC(=O)[C@H](CCC(N)=O)NC(=O)[C@H](CC(C)C)NC(=O)[C@H](CO)NC(=O)[C@H](CC(C)C)NC(=O)[C@H](CCSC)NC(=O)C(C)(C)NC(=O)[C@H](Cc1ccc(O)cc1)NC(=O)[C@@H](NC(=O)[C@H](CC(C)C)NC(=O)C(C)(C)NC(=O)[C@H](CC(C)C)NC(C)=O)[C@@H](C)O)C(C)C)C(C)C)C(N)=O (Ac-L[Aib]LTY[Aib]MLSLQEVVKKLNESY[AEEA]K(Palmitoyl)-NH2) | 0.245 µM | > 38.3 | 7.27 h | 59800 ng·h/mL | 5000 ng/mL | 5.46 µM (≈ 16.4 µg/mL) | 1.08 mL/min/kg | 9.1 h | 0.683 L/kg | 1.17 µM (≈ 3.5 µg/mL) | Active | 5.22 µM | > 200 µM | Active
CC[C@H](C)[C@H](NC(=O)[C@H](Cc1ccc(O)cc1)NC(=O)[C@H](CO)NC(=O)[C@H](CCC(=O)O)NC(=O)[C@H](CCC(=O)O)NC(=O)[C@H](CC(C)C)NC(=O)[C@H](CCCCN)NC(=O)[C@H](CCCCN)NC(=O)[C@@H](NC(=O)[C@@H](NC(=O)[C@H](CCC(=O)O)NC(=O)[C@H](CCC(=O)O)NC(=O)[C@H](CC(C)C)NC(=O)[C@H](CCCCN)NC(=O)[C@H](CCCCN)NC(=O)[C@H](CCSC)NC(=O)[C@H](CCC(=O)O)NC(=O)[C@H](Cc1ccc(O)cc1)NC(=O)[C@H](CCC(=O)O)NC(=O)[C@H](CC(C)C)NC(=O)[C@H](CC(=O)O)NC(=O)[C@H](CC(C)C)NC(=O)[C@H](CC(C)C)NC(=O)[C@@H](NC(=O)[C@@H](NC(=O)[C@H](CC(N)=O)NC(=O)[C@@H](NC(=O)[C@H](CCC(N)=O)NC(=O)[C@@H](NC(=O)[C@H](CC(C)C)NC(=O)[C@@H](N)CO)[C@@H](C)O)[C@@H](C)CC)[C@@H](C)O)[C@@H](C)O)C(C)C)C(C)C)C(=O)N[C@@H](CC(=O)O)C(=O)N[C@@H](CC(C)C)C(=O)N[C@@H](CCCCN)C(=O)N[C@@H](CCC(=O)O)C(=O)N[C@@H](CC(C)C)C(=O)O | 0.75 µM |  | 0.35 h | 6450 ng·h/mL | 30400 ng/mL |  | 10.2 mL/min/kg | 0.28 h | 0.307 L/kg |  |  |  |  | 
CSCC[C@H](NC(=O)[C@H](CCC(=O)O)NC(=O)C(C)(C)NC(=O)[C@@H](NC(=O)[C@H](CC(C)C)NC(=O)[C@H](CC(=O)O)NC(=O)C(C)(C)NC(C)=O)[C@@H](C)O)C(=O)N[C@@H](CC(C)C)C(=O)N[C@@H](CO)C(=O)N[C@@H](CC(C)C)C(=O)N[C@@H](CCC(N)=O)C(=O)N[C@@H](CCC(N)=O)C(=O)N[C@H](C(=O)N[C@H](C(=O)N[C@@H](CCCCN)C(=O)N[C@@H](C)C(=O)N[C@@H](CC(C)C)C(=O)N[C@@H](CC(N)=O)C(=O)N[C@@H](CCC(=O)O)C(=O)N[C@@H](CO)C(=O)N[C@@H](Cc1ccc(O)cc1)C(N)=O)C(C)C)C(C)C | > 50 µM |  |  |  |  |  |  |  |  |  |  |  |  | 
CSCC[C@H](NC(=O)C(C)(C)NC(=O)[C@H](Cc1ccc(O)cc1)NC(=O)[C@H](CCC(=O)O)NC(=O)[C@H](CC(C)C)NC(=O)C(C)(C)NC(=O)[C@H](CC(C)C)NC(C)=O)C(=O)N[C@@H](CCCCN)C(=O)N[C@@H](CO)C(=O)N[C@@H](CC(C)C)C(=O)N[C@@H](CCC(N)=O)C(=O)N[C@@H](CCC(N)=O)C(=O)N[C@H](C(=O)N[C@H](C(=O)N[C@@H](CCCCN)C(=O)N[C@@H](C)C(=O)N[C@@H](CC(C)C)C(=O)N[C@@H](CC(N)=O)C(=O)N[C@@H](CCC(=O)O)C(=O)N[C@@H](CO)C(=O)N[C@@H](Cc1ccc(O)cc1)C(N)=O)C(C)C)C(C)C | 14.8 µM |  |  |  |  |  |  |  |  |  |  |  |  | 

From ChEMBL document CHEMBL5584214, “Design of MERS-CoV entry inhibitory short peptides based on helix-stabilizing strategies” (Bioorg Med Chem Lett, 2024)
